The record followed here is ChEMBL document CHEMBL1828522, “Synthesis and preliminary evaluation of a modified estradiol-core bearing a fused γ-lactone as non-estrogenic inhibitor of 17β-hydroxysteroid dehydrogenase type 1” (Bioorg Med Chem Lett, 2011).

Molecules are shown by their SMILES. The source made the active and inactive calls. The calls are words filed in the database; no cut-off is given here.

The target of test [1] is T1, 17-beta-hydroxysteroid dehydrogenase type 1 (Homo sapiens) (UniProt P14061).
T1 sequence (whole entry): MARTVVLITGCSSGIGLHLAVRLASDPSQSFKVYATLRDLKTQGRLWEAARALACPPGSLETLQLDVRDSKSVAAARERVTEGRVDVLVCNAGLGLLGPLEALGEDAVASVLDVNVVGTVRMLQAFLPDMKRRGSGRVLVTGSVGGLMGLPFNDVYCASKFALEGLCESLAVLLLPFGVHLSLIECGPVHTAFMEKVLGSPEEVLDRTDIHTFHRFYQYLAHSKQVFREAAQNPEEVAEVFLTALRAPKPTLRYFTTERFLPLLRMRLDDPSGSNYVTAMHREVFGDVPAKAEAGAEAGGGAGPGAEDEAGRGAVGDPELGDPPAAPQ
The test can be described thus: Inhibition of 17beta-HSD1 in human T47D cells expressing estrogen receptor assessed as conversion of [14C]-E1 to [14C]-E2 at 5 uM after 24 hrs. Format: cell-based.

The subject of test [2] is T47D. The test can be described thus: Estrogenic activity in human T47D cells expressing estrogen receptor assessed as stimulation cell growth at 0.1 uM after 7 days relative to control.
Test [3] has as its system T47D. The test can be described thus: Estrogenic activity in human T47D cells expressing estrogen receptor assessed as stimulation cell growth at 1 uM after 7 days relative to control.
Test [4] addresses T1, 17-beta-hydroxysteroid dehydrogenase type 1 (Homo sapiens). The test can be described thus: Inhibition of 17beta-HSD1 in human T47D cells expressing estrogen receptor assessed as conversion of [14C]-E1 to [14C]-E2 at 0.3 uM after 24 hrs. Format: cell-based.
Test [5] deals with T2, 17-beta-hydroxysteroid dehydrogenase type 1 (Homo sapiens, UniProt P14061).
T2 sequence (P14061 whole entry): T1 sequence (whole entry)
The test can be described thus: Inhibition of 17beta-HSD1 in human T47D cells expressing estrogen receptor assessed as conversion of [14C]-E1 to [14C]-E2 after 24 hrs. Format: cell-based.

On to `C[C@]12CC[C@@H]3c4ccc(O)cc4CC[C@H]3[C@@H]1C[C@H](Cc1cccc(C(N)=O)c1)[C@@H]2O`, for which the inhibition came to 90% in test [1] and 85% in test [4]. Also, the Activity is recorded as 48% in the test with T47D [2] and 83% in the test with T47D [3].

In the case of `C[C@]12CC[C@@H]3c4ccc(O)cc4CC[C@H]3[C@@H]1C[C@@H]1[C@@H](Cc3cccc(C(N)=O)c3)C(=O)O[C@@H]12`, the inhibition is 75% in test [1] and 20% in test [4]. For the same compound, the outcome with T47D [2] and with T47D [3] was inactive. Also, the IC50 in test [5] was found to be 1000 nM.

For orientation: inhibition means the drop in the measured response relative to a control, in per cent. The term IC50 denotes the concentration needed to halve the response being measured.
